From article PMC11061419, “Identification of novel small molecule inhibitors of twin arginine translocation (Tat) pathway and their effect on the control of Campylobacter jejuni in chickens” (Frontiers in Microbiology, 2024)
In brackets after ≈: the same amount, converted by molar mass.

Tests used:
[1] = tested on: intracellular C. jejuni 81–176 in Caco-2 cells; assay: Copper sulfate sensitivity dose–response assay in infected Caco-2 colon epithelial cells; assay type: cell-based, Campylobacter jejuni; settings: 0.5 mM CuSO4; for C. jejuni 81–176 MBC in Caco2 cells: infected Caco-2 cells, 24 h
Method: The intracellular reduction in C. jejuni in the presence of a given SM (T1-T8) and 0.5 mM CuSO4 were evaluated using Caco-2 cells, as previously described ([Kumar et al., 2016]; [Deblais et al., 2019]). In brief, cells were infected for 2 h using a multiplicity of infection (MOI) of 100. Infected cells were treated with SM at a final concentration ranging between 5 and 0.315 μg/mL and incubated at 37°C for 24 h in a humidified 5% CO2 incubator. Following incubation, cells were washed once with 1X PBS, lysed with 0.1% Triton-100X, serially 10-fold diluted in 1X PBS, and plated on MH agar plate. Plates were incubated in microaerophilic conditions at 42°C for 24 h, to determine the intracellular survival. Cells not infected and not treated and cells infected and treated with 1% DMSO were used as controls (N = two independent experiments with four technical replicate for each SM).

C. jejuni 81–176 = assay: Copper sulfate sensitivity dose–response assay in vitro (MIC/MBC); assay type: cell-based, Campylobacter jejuni; settings: for MBC / MIC: Campylobacter jejuni, 0.5 mM CuSO4, head displaced; for MBC: read-out: MBC, C. jejuni (Table S5); for MIC: read-out: MIC, C. jejuni (Table S4); for C. jejuni 81–176 in vitro MBC: minimal bactericidal concentration in presence of 0.5 mM CuSO4; for C. jejuni 81–176 in vitro MIC: minimal bacteriostatic concentration in presence of 0.5 mM CuSO4
Method: (§1) In total, 19 SMs were two-fold serially diluted to obtain a final SM concentration ranging from 6.25 to 0.012 μg/mL. C. jejuni 81–176 was then treated with a determined concentration of SM, as described in the copper sensitivity assay. […] The lowest bactericidal SM concentration was considered the MBC (no increase in OD600 over time and no viable cells were recovered on agar plate after challenge) (N = 3 replicates per SM). […] However, these SMs were two-fold serially diluted to obtain a final SM concentration ranging from 5 μg to 0.0625 μg for testing (N = two independent experiments with four technical replicate for each SM).

[2] = tested on: Campylobacter spp. (12 strains); assay: Activity spectrum against Campylobacter strains at 6.25 μg/mL with 0.5 mM CuSO4; assay type: cell-based, Campylobacter jejuni, Campylobacter coli; settings: 6.25 μg/mL SM
C. jejuni Au-45 = assay: Copper sulfate sensitivity dose–response assay in vitro (MIC/MBC); assay type: cell-based; settings: Campylobacter jejuni; for MIC: AU45, read-out: MIC, Au-45 (Table S4); for MBC: AU45, 0.5 mM CuSO4, read-out: MBC, Au-45 (Table S5)
Method: (§2) Campylobacter jejuni 81–176 was the primary model strain used for the selection of the potential Tat-dependent inhibitors by high-throughput screening. C. jejuni 81–176 is resistant to 0.5 and 1 mM CuSO4 (Supplementary Figure S1). C. jejuni 81–176 tatC knockout mutant (C. jejuni ΔtatC) was used to confirm the Tat-dependent inhibitory effect of the selected SM. C. jejuni ΔtatC is susceptible to 0.5 mM and higher of CuSO4 ([Rajashekara et al., 2009]). The specificity of the Tat-dependent inhibitors was also tested on 11 additional Campylobacter strains (C. coli ATCC33559 and 10 other C. jejuni strains isolated from chickens) and 7 commensal/beneficial bacteria (Supplementary Table S1). The […] (Au-13, Au-20, Au-38, Au-39, Au-47, Au-50, Au-24, Au-32, Au-44, and Au-45) were selected based on their single nucleotide polymorphism (SNP)-type and percent of prevalence in chickens ([Merchant-Patel et al., 2008]; [Kumar et al., 2016]). Additional details about the bacterial strains are shown in Supplementary Table S1.
as §1

C. jejuni Au-24 = assay: as above; assay type: cell-based; settings: Campylobacter jejuni; for MIC: AU24, read-out: MIC, Au-24 (Table S4); for MBC: AU24, 0.5 mM CuSO4, read-out: MBC, Au-24 (Table S5)
Method: as §2, §1

C. jejuni Au-20 = assay: as above; assay type: cell-based; settings: Campylobacter jejuni; for MIC: AU20, read-out: MIC, Au-20 (Table S4); for MBC: AU20, 0.5 mM CuSO4, read-out: MBC, Au-20 (Table S5)
Method: as §2, §1

C. jejuni Au-50 = assay: as above; assay type: cell-based; settings: Campylobacter jejuni; for MIC: AU50, read-out: MIC, Au-50 (Table S4); for MBC: AU50, 0.5 mM CuSO4, read-out: MBC, Au-50 (Table S5)
Method: as §2, §1

C. coli ATCC33559 = assay: as above; assay type: cell-based; settings: Campylobacter coli; for MIC: ATCC33559, read-out: MIC, C. coli (Table S4); for MBC: ATCC33559, 0.5 mM CuSO4, read-out: MBC, C. coli (Table S5)
Method: as §2, §1

C. jejuni Au-38 = assay: as above; assay type: cell-based; settings: Campylobacter jejuni; for MIC: AU38, read-out: MIC, Au-38 (Table S4); for MBC: AU38, 0.5 mM CuSO4, read-out: MBC, Au-38 (Table S5)
Method: as §2, §1

C. jejuni Au-44 = assay: as above; assay type: cell-based; settings: Campylobacter jejuni; for MIC: AU44, read-out: MIC, Au-44 (Table S4); for MBC: AU44, 0.5 mM CuSO4, read-out: MBC, Au-44 (Table S5)
Method: as §2, §1

C. jejuni Au-47 = assay: as above; assay type: cell-based; settings: Campylobacter jejuni; for MIC: AU47, read-out: MIC, Au-47 (Table S4); for MBC: AU47, 0.5 mM CuSO4, read-out: MBC, Au-47 (Table S5)
Method: as §2, §1

C. jejuni Au-13 = assay: as above; assay type: cell-based; settings: Campylobacter jejuni; for MIC: AU13, read-out: MIC, Au-13 (Table S4); for MBC: AU13, 0.5 mM CuSO4, read-out: MBC, Au-13 (Table S5)
Method: as §2, §1

C. jejuni Au-39 = assay: as above; assay type: cell-based; settings: Campylobacter jejuni; for MIC: AU39, read-out: MIC, Au-39 (Table S4); for MBC: AU39, 0.5 mM CuSO4, read-out: MBC, Au-39 (Table S5)
Method: as §2, §1

C. jejuni Au-32 = assay: as above; assay type: cell-based; settings: Campylobacter jejuni; for MIC: AU32, read-out: MIC, Au-32 (Table S4); for MBC: AU32, 0.5 mM CuSO4, read-out: MBC, Au-32 (Table S5)
Method: as §2, §1

Caco-2 cells = assay: Cytotoxicity on Caco-2 colon epithelial cells (LDH assay); assay type: cell-based; settings: for cytotoxicity index on Caco-2 cells: 5 μg SM /ml, 24 h
Method: Cytotoxicity of the eight SMs (T1-T8) was tested on Caco-2 cells at 5, 25, and 50 μg/mL, as previously described ([Kumar et al., 2016]; [Deblais et al., 2019]). In brief, a 96-well plate seeded with approximately 1.4 × 10^5 Caco-2 cells/well in MEM medium was challenged with a final SM concentration of 5, 25, and 50 μg/mL. After 24 h of incubation at 37°C in a humidified 5% CO2 incubator, cytotoxic effects were determined using the PierceTM Lactate Dehydrogenase Cytotoxicity Assay Kit (Thermo Fisher Scientific). Cell death was measured based on the production of formazan (chromogenic dye), which can be read at OD570. Equal concentrations (5, 25, and 50 μg/mL) of kanamycin or chloramphenicol, 1% DMSO, and 10X lysis buffer were used as control. The cytotoxicity level was calculated according to the manufacturer’s instructions (N = two independent experiments with three technical replicate for each SM).

Row | SMILES | C. jejuni 81–176 MBC in Caco2 cells [1] [µg/mL] | MBC (C. jejuni 81–176) [µg/mL] | MIC (C. jejuni 81–176) [µg/mL] | C. jejuni 81–176 in vitro MBC (C. jejuni 81–176) [µg/mL] | C. jejuni 81–176 in vitro MIC (C. jejuni 81–176) [µg/mL] | Growth inhibition at 6.25 μg/mL, Campylobacter spp. (strains inhibited/tested) [2] | MIC (C. jejuni Au-45) [µg/mL] | MBC (C. jejuni Au-45) [µg/mL] | MIC (C. jejuni Au-24) [µg/mL] | MBC (C. jejuni Au-24) [µg/mL] | MIC (C. jejuni Au-20) [µg/mL] | MBC (C. jejuni Au-20) [µg/mL] | MIC (C. jejuni Au-50) [µg/mL] | MBC (C. jejuni Au-50) [µg/mL] | MIC (C. coli ATCC33559) [µg/mL] | MBC (C. coli ATCC33559) [µg/mL] | MIC (C. jejuni Au-38) [µg/mL] | MBC (C. jejuni Au-38) [µg/mL] | MIC (C. jejuni Au-44) [µg/mL] | MBC (C. jejuni Au-44) [µg/mL] | also measured
1 | CSc1ccccc1-c1nnc(NC(=O)Cc2ccccc2)o1 [T7] | 2.5 | 0.16 (≈ 0.492 µM) | 0.02 (≈ 0.0615 µM) | 0.16 | 0.02 | 12/12 | 0.16 (≈ 0.492 µM) | 0.32 (≈ 0.983 µM) | 0.08 (≈ 0.246 µM) | 0.16 (≈ 0.492 µM) | 0.16 (≈ 0.492 µM) | 0.32 (≈ 0.983 µM) | 0.08 (≈ 0.246 µM) | 0.32 (≈ 0.983 µM) | 0.16 (≈ 0.492 µM) | 0.32 (≈ 0.983 µM) | 0.16 (≈ 0.492 µM) | 0.32 (≈ 0.983 µM) | 0.31 (≈ 0.953 µM) | 1.24 (≈ 3.81 µM) | SM concentration that completely cleared intracellular C. jejuni 81–176 in Caco-2 cells (MBC in Caco2 cells) ([1]; 24 h treatment): < 5 µg/mL; MIC (C. jejuni Au-47): 0.31 µg/mL (≈ 0.953 µM); MBC (C. jejuni Au-47): 0.62 µg/mL (≈ 1.91 µM); MIC (C. jejuni Au-13): 0.31 µg/mL (≈ 0.953 µM); MBC (C. jejuni Au-13): 0.62 µg/mL (≈ 1.91 µM); MIC (C. jejuni Au-39): 0.31 µg/mL (≈ 0.953 µM); MBC (C. jejuni Au-39): 0.62 µg/mL (≈ 1.91 µM); MIC (C. jejuni Au-32): 0.08 µg/mL (≈ 0.246 µM); MBC (C. jejuni Au-32): 0.16 µg/mL (≈ 0.492 µM); cytotoxicity index on Caco-2 cells (Caco-2 cells): < 20%
2 | CCCNC(=S)Nc1cc(OC)cc(OC)c1 [T1] | 0.63 | 0.62 (≈ 2.44 µM) | 0.19 (≈ 0.747 µM) | 0.62 | 0.19 | 12/12 | 0.31 (≈ 1.22 µM) | 0.62 (≈ 2.44 µM) | 0.16 (≈ 0.629 µM) | 0.32 (≈ 1.26 µM) | 0.31 (≈ 1.22 µM) | 0.62 (≈ 2.44 µM) | 0.31 (≈ 1.22 µM) | 0.62 (≈ 2.44 µM) | 0.31 (≈ 1.22 µM) | 0.62 (≈ 2.44 µM) | 0.31 (≈ 1.22 µM) | 0.62 (≈ 2.44 µM) | 0.31 (≈ 1.22 µM) | 0.62 (≈ 2.44 µM) | MIC (C. jejuni Au-47): 0.16 µg/mL (≈ 0.629 µM); MBC (C. jejuni Au-47): 0.32 µg/mL (≈ 1.26 µM); MIC (C. jejuni Au-13): 1.25 µg/mL (≈ 4.91 µM); MBC (C. jejuni Au-13): 2.5 µg/mL (≈ 9.83 µM); MIC (C. jejuni Au-39): 0.31 µg/mL (≈ 1.22 µM); MBC (C. jejuni Au-39): 0.62 µg/mL (≈ 2.44 µM); MIC (C. jejuni Au-32): 0.62 µg/mL (≈ 2.44 µM); MBC (C. jejuni Au-32): 1.24 µg/mL (≈ 4.88 µM); cytotoxicity index on Caco-2 cells (Caco-2 cells): < 20%; toxicity level to Caco-2 cells (Caco-2 cells; 25 μg/mL or 50 μg/mL of SM for 24 h): 36%
